Molecules are shown by their SMILES.

The target of experiment [1] is T1, Thyroid hormone receptor alpha (Homo sapiens, UniProt P10827).
T1 sequence (P10827 whole entry): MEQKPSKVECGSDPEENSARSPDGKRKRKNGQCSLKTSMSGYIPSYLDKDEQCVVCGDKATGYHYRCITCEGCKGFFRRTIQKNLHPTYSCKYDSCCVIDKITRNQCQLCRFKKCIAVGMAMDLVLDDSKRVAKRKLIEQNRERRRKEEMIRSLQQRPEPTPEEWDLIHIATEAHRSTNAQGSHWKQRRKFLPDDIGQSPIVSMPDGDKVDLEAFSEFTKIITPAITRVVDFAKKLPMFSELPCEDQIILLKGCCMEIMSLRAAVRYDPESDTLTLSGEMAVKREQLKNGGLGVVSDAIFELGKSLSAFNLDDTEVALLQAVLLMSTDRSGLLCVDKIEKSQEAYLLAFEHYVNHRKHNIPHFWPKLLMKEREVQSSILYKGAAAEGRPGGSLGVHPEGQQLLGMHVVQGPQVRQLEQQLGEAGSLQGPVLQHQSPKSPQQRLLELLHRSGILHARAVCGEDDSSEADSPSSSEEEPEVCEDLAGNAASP
Description: Effect on human TRalpha transactivation activity in U2OS cells by luciferase reporter assay

Experiment [2] addresses T2, Thyroid hormone receptor beta (Homo sapiens, UniProt P10828).
T2 sequence (P10828 whole entry): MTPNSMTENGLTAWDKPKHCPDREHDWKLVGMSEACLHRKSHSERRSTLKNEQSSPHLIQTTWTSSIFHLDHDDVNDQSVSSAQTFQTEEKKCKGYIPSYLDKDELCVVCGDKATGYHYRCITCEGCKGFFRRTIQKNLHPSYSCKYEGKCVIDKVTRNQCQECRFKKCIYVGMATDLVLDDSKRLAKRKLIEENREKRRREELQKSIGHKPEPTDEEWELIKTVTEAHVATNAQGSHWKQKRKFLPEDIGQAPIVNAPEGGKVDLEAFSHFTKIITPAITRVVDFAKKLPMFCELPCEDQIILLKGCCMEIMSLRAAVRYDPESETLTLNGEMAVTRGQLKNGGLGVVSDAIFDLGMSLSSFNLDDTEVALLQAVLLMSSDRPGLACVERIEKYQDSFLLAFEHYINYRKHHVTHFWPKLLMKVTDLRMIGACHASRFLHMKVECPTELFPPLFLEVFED

Experiment [3] deals with T1, Thyroid hormone receptor alpha. The source holds these as a separate data set.
Description: Effect on human TRalpha transactivation activity in HeLa cells by luciferase reporter assay
Experiment [4] concerns the target T2, Thyroid hormone receptor beta. This is another data set of the same source.
Experiment [5] has as its target T1, Thyroid hormone receptor alpha. This is another data set of the same source.
Experiment [6] concerns the target T2, Thyroid hormone receptor beta. The source holds these as a separate data set.

As usually defined, the EC50 is the concentration that produces a half-maximal response. One may read the Kd as the free concentration of one partner at which half of the binding sites on the other are occupied at equilibrium, for simple one-to-one binding. A higher Kd goes with a looser complex. As for `O=C1NC(=O)C(Cc2cc(I)c(Oc3ccc(O)c(Br)c3)c(I)c2)N1` (centres undefined), the concentration for a half-maximal effect (EC50) in experiment [1] was 206 nM; in experiment [3], 44 nM; in experiment [4] it was 530 nM; in experiment [6], 5200 nM. The Kd in experiment [2] stood at 68 nM; in experiment [5] it was 43 nM.

In the case of `O=C1NC(=O)C(Cc2cc(I)c(Oc3ccc(O)c(C4CC4)c3)c(I)c2)N1` (centres undefined), the concentration for a half-maximal effect (EC50) in experiment [1] stood at 145 nM; in experiment [3], 39 nM; in experiment [4], 100 nM; in experiment [6], 2000 nM. Further, the results for the Kd in experiment [2] and in experiment [5] were 49 nM and 25 nM, respectively.

In the case of `CCc1cc(Oc2c(I)cc(CC3NC(=O)NC3=O)cc2I)ccc1O` (centres undefined), the EC50 in experiment [1] turned out to be 87 nM; in experiment [3] it was 10 nM; in experiment [4] it was 27 nM; in experiment [6], 1400 nM. Moreover, the equilibrium dissociation constant (Kd) amounted to 18 nM in experiment [2] and 15 nM in experiment [5].

As to `O=C1NC(=O)C(Cc2cc(I)c(Oc3ccc(O)cc3)c(I)c2)N1` (centres undefined), the concentration for a half-maximal effect (EC50) in experiment [1] is above 20000 nM; in experiment [3], above 10000 nM; in experiment [4] it was above 10000 nM; in experiment [6], above 20000 nM. Besides, the Kd turned out to be 2000 nM in experiment [2] and 1700 nM in experiment [5].

Consider `CC(C)c1cc(Oc2c(I)cc(CC3NC(=O)NC3=O)cc2I)ccc1O` (centres undefined), for which the EC50 in experiment [1] is 34 nM; in experiment [3], 11 nM; in experiment [4] it was 58 nM; in experiment [6], 390 nM. Moreover, the Kd in experiment [2] came to 1.7 nM; in experiment [5], 1.2 nM.

For the compound `CC(C)c1cc(Oc2c(Br)cc(CC3NC(=O)NC3=O)cc2Br)ccc1O` (centres undefined), the EC50 in experiment [1] was determined as 128 nM; in experiment [3] it was 8.4 nM; in experiment [4] it was 32 nM; in experiment [6], 421 nM. Also, the values for the Kd in experiment [2] and in experiment [5] were 18.4 nM and 17 nM, respectively.

`Cc1cc(Oc2c(I)cc(CC3NC(=O)NC3=O)cc2I)ccc1O` (centres undefined): the EC50 in experiment [1] is 146 nM; in experiment [3], 27 nM; in experiment [4], 180 nM; in experiment [6], 4000 nM. The values for the Kd in experiment [2] and in experiment [5] were 53 nM and 42 nM, respectively.

`COc1cc(Oc2c(I)cc(CC3NC(=O)NC3=O)cc2I)ccc1O` (centres undefined): the EC50 in experiment [1] came out at 870 nM; in experiment [3] it was 42 nM; in experiment [4], 265 nM; in experiment [6], 8000 nM. The equilibrium dissociation constant (Kd) in experiment [2] is 119 nM; in experiment [5], 82 nM.

For `O=C1NC(=O)C(Cc2cc(I)c(Oc3ccc(O)c(I)c3)c(I)c2)N1` (centres undefined), the EC50 in experiment [1] worked out at 105 nM; in experiment [3], 21 nM; in experiment [4] it was 216 nM; in experiment [6], 2000 nM. The Kd is 36 nM in experiment [2] and 24 nM in experiment [5].

The record behind these values is ChEMBL document CHEMBL1143954, “Characterization of thyroid hormone receptor alpha (TRalpha)-specific analogs with varying inner- and outer-ring substituents” (Bioorg Med Chem, 2008).
